Assay results: patent US20250059141A1, “TLR MODULATOR AND USE THEREOF” (DUALITY BIOLOGICS (SUZHOU) CO., LTD., priority 2021, published 2025)

Each compound was assayed against T1, hTLR8 (human Toll-like receptor 8) (Homo sapiens, UniProt Q9NR97) (assay: HEK-Blue hTLR8 reporter assay (QUANTI-Blue, OD650)). Settings: HEK-Blue hTLR8 cells, 24 h; class symbols; read-out: Reporter assay TLR8 EC50.
T1 construct: host or cells: HEK-Blue hTLR8 (HEK293-derived reporter cells)
T1 sequence (Q9NR97 27-1041): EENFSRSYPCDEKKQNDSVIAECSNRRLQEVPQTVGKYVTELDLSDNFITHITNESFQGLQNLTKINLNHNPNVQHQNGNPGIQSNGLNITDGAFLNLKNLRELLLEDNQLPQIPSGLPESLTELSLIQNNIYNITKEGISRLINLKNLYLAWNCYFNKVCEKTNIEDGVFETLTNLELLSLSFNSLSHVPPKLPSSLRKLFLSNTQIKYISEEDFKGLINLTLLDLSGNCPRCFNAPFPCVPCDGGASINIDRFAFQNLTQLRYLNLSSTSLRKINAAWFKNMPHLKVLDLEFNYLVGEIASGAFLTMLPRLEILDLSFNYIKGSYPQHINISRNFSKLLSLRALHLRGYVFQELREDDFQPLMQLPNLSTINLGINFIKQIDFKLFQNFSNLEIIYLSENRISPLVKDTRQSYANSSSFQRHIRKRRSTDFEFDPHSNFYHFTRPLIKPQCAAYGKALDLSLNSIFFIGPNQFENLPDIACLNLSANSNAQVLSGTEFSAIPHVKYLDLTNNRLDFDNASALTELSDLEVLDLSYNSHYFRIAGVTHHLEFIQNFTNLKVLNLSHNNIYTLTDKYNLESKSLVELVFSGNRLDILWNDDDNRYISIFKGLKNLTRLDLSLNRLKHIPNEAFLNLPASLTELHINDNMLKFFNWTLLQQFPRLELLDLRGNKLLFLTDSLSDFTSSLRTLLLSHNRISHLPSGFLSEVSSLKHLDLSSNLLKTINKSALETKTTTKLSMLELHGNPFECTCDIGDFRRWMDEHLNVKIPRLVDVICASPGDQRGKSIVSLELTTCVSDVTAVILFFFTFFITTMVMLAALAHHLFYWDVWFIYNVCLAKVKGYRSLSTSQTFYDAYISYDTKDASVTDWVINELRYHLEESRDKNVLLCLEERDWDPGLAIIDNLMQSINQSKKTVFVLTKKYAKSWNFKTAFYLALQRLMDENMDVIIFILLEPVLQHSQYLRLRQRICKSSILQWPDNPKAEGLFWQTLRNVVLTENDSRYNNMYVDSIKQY
Format: cell-based
Procedure: In this example, the agonistic activity of the compounds of the present application on hTLR7 (human Toll-like receptor 7) and hTLR8 (human Toll-like receptor 8) was assessed; the induction activity of the compounds on human PBMCs for TNF-α and IFN-α production was assessed in human PBMCs (human peripheral blood mononuclear cells).
All compounds were formulated in DMSO into 30 mM stock solutions and preserved at 4° C. The reference compound ([…], Cat. No. tlrl-r848-5) was purchased from InvivoGen and formulated into a 5 mg/mL stock solution in DMSO and preserved in a freezer at −20° C. HEK-Blue hTLR7 and HEK-Blue hTLR8 cell lines were purchased from InvivoGen, and human PBMCs were purchased from Shanghai Saily Biotechnology Co., Ltd. (Cat. No. XFB—HP100B).
The major instruments used in this study were multifunctional microplate reader Flexstation III (Molecular Device), Envision (Perkin Elmer), M2e (Molecular Device), and Echo555 (Labcyte). 2.1 Agonistic activity of compounds on hTLR7 (human Toll-like receptor 7) and hTLR8 (human Toll-like receptor 8)
Compound dilution: The compounds of the present application are diluted in DMSO, for example, to about 15 mM. The reference compound was added to the plates in sequence after dilution. The compounds were serially 3-fold diluted to 10 concentrations and added to 96-well plates in duplicate.
For the negative control wells, DMSO was added at 0.2 μL/well, and the reference compound was added to the positive control wells. The final concentration of DMSO was 0.2%.
Cell plating: When an 80% confluence of HEK Blue hTLR7&8 cells in the culture flask was observed under a microscope, the culture medium was discarded, 10 mL of detection medium was added, and the cells were separated by pipetting. The cells were counted on a cytometer and diluted to 500,000 cells/mL. The cells were plated at 100 μL/50,000 cells/well in the 96-well plates containing the compounds. The compounds and cells were co-incubated at 37° C. in a 5% CO2 incubator for 24 hours.
Compound activity detection: 20 μL of cell supernatant was taken from each well and added to a plate containing QUANTI-Blue™ reagent at 180 μL/well. The plate was incubated at 37° C. for 1 hour, and the absorbance at 650 nm (OD650) was measured on the multifunctional microplate reader Flexstation III.
Compound activity data analysis: The OD650 values were analyzed by GraphPad Prism software and fitted to give dose-response curves of the compounds. The EC50 values of compounds were calculated.

EC50 [nM]	SMILES
≤ 10	CCCN(OCc1ccc(N)cc1)C(=O)C1=Cc2ccc(C(=O)N3CC(Oc4ccccc4)C3)cc2N=C(N)C1 [Compound 94]
≤ 10	CCCN(OCc1ccc(N)cc1)C(=O)C1=Cc2ccc(C(=O)N3CC4(COC4)C3)cc2N=C(N)C1 [Compound 95]
≤ 10	CCCN(OCc1ccc(N)cc1)C(=O)C1=Cc2ccc(C(=O)N3CCN(c4ccccc4)CC3)cc2N=C(N)C1 [Compound 97]

Second part, the compound before the results:

SMILES	EC50 [nM]
CCCN(OCc1ccc(N)cc1)C(=O)C1=Cc2ccc(C(=O)Nc3ccc4c(c3)CNC4)cc2N=C(N)C1 [Compound 90]	≤ 10
CCCN(OCc1ccc(N)cc1)C(=O)C1=Cc2ccc(C(=O)N3CCN(C)CC3)cc2N=C(N)C1 [Compound 93]	≤ 10
